How the values were obtained:
PGC-1α and related genes = assay: Gene expression in brain and hippocampus of Huntington's disease models; format: in vivo, mouse; conditions: R6/2 mice, oral 0.1 mg/kg/day, 10 weeks
Excerpt: In order to investigate the changes in gene expression and cognitive ability by the treatment with SL (3′-SL & 6′-SL) compositions in Huntington's brain disease model, 4-week-old mice were purchased from Central Lab Animal (Korea). Water was freely accessible, and a commercially available pellet feed (Dooyeul Biotech, Korea) was given for one week. At 5 weeks of age, the mice were divided into three groups (composed of eight mice for each group): Eight 5-week-old male c57/BL6 mice (normal mice; initial body weight, average 25.3±4.3 g) treated with a normal diet were used for a control group. […]
Sialyllactose or DW was orally administered daily. […] The dietary intake and body weight change were measured every 5 days. […]
The gene expression changes by the treatment with SL (3′-SL & 6′-SL) compositions were quantitatively compared in two main organs (brain and hippocampus) associated with bran diseases. RNA was extracted by TRIzol agent (Invitrogen). cDNA was synthesized by using RNA, which has been extracted as above and quantified, and a reverse transcription system (Promega, USA). The expression patterns of PGC-1α and related genes were measured by using pre-designed primers and probes (Applied Biosystems; PGC-1α, Mm00447181_m1, GAPDH, and Mm99999915_q1) for the synthesized cDNA and analysis targets (Fndc5, PGC-1α, Erra, UCP1, BDNF, SOD2, and GPX1). […]

[1] = test system: skin test model (HRM2) mice; assay: Skin tests (UV irradiation, skin sensitivity, skin irritation, subcutaneous absorption) in skin test model mice; format: in vivo, mouse; conditions: oral 0.1 mg/kg/day, 10 weeks
Excerpt: In order to investigate the gene expression chages by body parts by the treatment with the SL (3′-SL & 6′-SL) compositions in skin test models, 6-week-old male skin test model (HRM2) mice (hairless appearance containing melanin) were randomly grouped into three different dietary treatment groups (8 animals per group, a total of 24 animals) below, and the diets (AIN-76A, Dyets, USA) were maintained for 10 weeks. The UV irradiation (black spot, wrinkle test), skin sensitivity test, skin irritation test, subcutaneous absorption test, or the like were conducted using a portable color-difference meter (CR-10, Minolta, Japan): • Control group: Group fed with a normal diet (8 animals) • 3′-SL administration group: Models treated with 3′-sialyllactose (3′-SL, Sigma) (oral administration of 0.1 mg per kg of mouse weight per day) in addition to the normal diet group (8 animals) • 6′-SL administration group: Models treated with 6′-sialyllactose (6′-SL, Sigma) (oral administration of 0.1 mg per kg of mouse weight per day) in addition to the normal diet group (8 animals)

Compound	expression levels of PGC-1α and related genes vs SL non-administration (Huntington's disease model) group (PGC-1α and related genes)	expression levels of PGC-1α and related genes vs normal control group (PGC-1α and related genes)	skin state in UV irradiation (black spot, wrinkle test), skin sensitivity, skin irritation, subcutaneous absorption tests vs control [1]
CC(=O)N[C@H]1[C@H]([C@H](O)[C@H](O)CO)O[C@@](OC[C@H]2O[C@@H](O[C@H]3[C@H](O)[C@@H](O)[C@H](O)O[C@@H]3CO)[C@H](O)[C@@H](O)[C@H]2O)(C(=O)O)C[C@@H]1O [6′-SL, α-NeuNAc-(2→6)-β-D-Gal-(1→4)-D-Glc]	very excellent	somewhat lower	much improved skin
CC(=O)N[C@H]1[C@H]([C@H](O)[C@H](O)CO)O[C@@](O[C@H]2[C@@H](O)[C@@H](CO)O[C@@H](O[C@H]3[C@H](O)[C@@H](O)C(O)O[C@@H]3CO)[C@@H]2O)(C(=O)O)C[C@@H]1O (stereo partly drawn) [3′-SL, α-NeuNAc-(2→3)-β-D-Gal-(1→4)-D-Glc]	relatively low compared with 6′-SL		much improved skin

From patent US20190030053A1, “COMPOSITION FOR INCREASING EXPRESSION OF PGC-1alpha” (BENEBIOSIS CO., LTD., priority 2016, published 2019)
